According to ChEMBL document CHEMBL1201862, “PubChem BioAssay data set” (2004):
The source made the active and inactive calls.

Legend:
[1] = molecular target: T1, Methionyl-tRNA synthetase, putative (Trypanosoma brucei brucei, UniProt Q38C91); type: functional, Trypanosoma brucei brucei strain 927/4 GUTat10.1;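 further: Read-out by fluorescence polarization, run as a confirmatory high-throughput counterscreen; potency of MetRS inhibitors measured by reduced AMP formation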
T1 sequence (Q38C91 whole entry): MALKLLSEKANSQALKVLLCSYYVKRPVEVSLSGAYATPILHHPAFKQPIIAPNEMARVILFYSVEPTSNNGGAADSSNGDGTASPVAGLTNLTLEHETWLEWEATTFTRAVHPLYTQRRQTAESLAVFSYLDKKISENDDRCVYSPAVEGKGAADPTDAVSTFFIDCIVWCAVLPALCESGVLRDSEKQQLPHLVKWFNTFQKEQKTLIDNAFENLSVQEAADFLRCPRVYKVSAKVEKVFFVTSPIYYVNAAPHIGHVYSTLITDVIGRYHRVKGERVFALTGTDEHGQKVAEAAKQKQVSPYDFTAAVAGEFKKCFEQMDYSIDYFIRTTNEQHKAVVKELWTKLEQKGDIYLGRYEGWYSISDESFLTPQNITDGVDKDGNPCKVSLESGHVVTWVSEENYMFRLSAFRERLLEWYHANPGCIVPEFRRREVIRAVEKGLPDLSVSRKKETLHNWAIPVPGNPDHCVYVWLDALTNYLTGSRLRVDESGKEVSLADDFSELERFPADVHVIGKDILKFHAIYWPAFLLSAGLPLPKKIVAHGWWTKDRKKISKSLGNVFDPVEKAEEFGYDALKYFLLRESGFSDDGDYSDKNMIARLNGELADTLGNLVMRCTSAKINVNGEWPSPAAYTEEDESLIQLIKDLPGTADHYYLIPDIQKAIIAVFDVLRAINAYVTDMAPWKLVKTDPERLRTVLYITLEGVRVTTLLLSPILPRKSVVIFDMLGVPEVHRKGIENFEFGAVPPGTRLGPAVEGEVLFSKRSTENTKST

[2] = molecular target: DNA repair and recombination protein RAD54-like (Homo sapiens, UniProt Q92698); assay: inhibitors of human RAD54 branch migration, confirmation, biochemical, fluorescence, cherry-picked samples, dose series (AID 651657); type: functional
[3] = molecular target: T2, DNA repair protein RAD52 homolog (Homo sapiens, UniProt P43351); type: functional, biochemical
T2 sequence (P43351 whole entry): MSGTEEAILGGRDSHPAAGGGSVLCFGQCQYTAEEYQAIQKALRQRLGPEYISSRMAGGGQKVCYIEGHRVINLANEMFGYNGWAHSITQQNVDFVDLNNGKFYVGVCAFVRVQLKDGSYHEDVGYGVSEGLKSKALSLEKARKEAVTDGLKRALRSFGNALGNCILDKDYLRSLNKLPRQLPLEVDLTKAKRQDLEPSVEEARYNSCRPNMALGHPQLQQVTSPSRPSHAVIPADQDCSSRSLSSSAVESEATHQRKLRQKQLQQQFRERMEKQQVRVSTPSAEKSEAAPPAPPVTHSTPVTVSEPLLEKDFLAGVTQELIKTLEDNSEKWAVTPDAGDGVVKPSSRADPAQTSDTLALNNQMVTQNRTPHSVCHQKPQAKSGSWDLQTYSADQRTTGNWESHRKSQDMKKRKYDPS

[4] = molecular target: Adenosylmethionine-8-amino-7-oxononanoate aminotransferase (Mycobacterium tuberculosis, UniProt P9WQ81); assay: Mycobacterium tuberculosis BioA enzyme inhibitor Measured in Biochemical System Using Plate Reader - 2163-02_Inhibitor_Dose_CherryPick_Activity.; type: functional, Mycobacterium tuberculosis UT205
Chain of Adenosylmethionine-8-amino-7-oxononanoate aminotransferase (P9WQ81 whole entry): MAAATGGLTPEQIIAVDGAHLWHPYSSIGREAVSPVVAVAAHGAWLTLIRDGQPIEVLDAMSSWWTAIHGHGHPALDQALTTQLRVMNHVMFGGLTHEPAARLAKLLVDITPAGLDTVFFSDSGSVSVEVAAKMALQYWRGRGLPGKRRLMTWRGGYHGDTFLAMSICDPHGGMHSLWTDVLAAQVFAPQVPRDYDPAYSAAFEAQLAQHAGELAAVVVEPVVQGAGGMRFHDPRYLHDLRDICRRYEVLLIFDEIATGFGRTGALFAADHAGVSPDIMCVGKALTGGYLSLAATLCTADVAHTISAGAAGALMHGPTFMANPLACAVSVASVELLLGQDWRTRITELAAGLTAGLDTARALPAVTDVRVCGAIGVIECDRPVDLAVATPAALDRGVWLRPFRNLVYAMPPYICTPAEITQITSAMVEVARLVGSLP

Chain of DNA repair and recombination protein RAD54-like (Q92698 whole entry): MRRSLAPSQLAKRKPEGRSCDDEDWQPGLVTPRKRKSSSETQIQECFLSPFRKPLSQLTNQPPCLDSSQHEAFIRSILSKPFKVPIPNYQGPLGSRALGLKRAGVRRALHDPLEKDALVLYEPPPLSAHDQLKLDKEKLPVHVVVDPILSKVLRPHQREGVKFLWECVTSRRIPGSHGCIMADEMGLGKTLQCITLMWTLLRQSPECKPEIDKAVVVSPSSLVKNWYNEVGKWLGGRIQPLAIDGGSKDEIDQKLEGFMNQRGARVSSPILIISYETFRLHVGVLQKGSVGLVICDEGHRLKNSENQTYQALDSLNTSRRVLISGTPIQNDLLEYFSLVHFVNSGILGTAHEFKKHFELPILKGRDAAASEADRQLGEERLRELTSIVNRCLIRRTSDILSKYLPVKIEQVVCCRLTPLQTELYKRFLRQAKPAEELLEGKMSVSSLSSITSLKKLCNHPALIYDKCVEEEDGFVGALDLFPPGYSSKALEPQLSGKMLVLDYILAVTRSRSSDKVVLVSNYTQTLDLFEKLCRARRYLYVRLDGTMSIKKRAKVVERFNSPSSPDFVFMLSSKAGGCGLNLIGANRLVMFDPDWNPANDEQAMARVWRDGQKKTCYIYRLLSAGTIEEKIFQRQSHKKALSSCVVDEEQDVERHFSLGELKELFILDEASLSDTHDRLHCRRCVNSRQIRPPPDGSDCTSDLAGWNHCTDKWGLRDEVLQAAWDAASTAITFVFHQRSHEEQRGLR

**Q.** `Cc1ccc2nc(-c3ccc(SCC(=O)Nc4ccc5c(c4)OCCO5)nc3)[nH]c2c1` was tested. Which IC50 [1] did it give?
**A.** Its IC50 is 21.5 µM (inactive).

**Q.** With `Cc1cc(C)c2c(c1)c1nnc(SCCN3CCCCC3)nc1n2C` as the compound, how does the AC50 [2] read?
**A.** The AC50 was 11 µM (active).

**Q.** And the AC50 [3]?
**A.** Its AC50 is 6.11 µM (active).

**Q.** `CN1c2ccc(-c3cccc(F)c3)cc2[C@H]2[C@H](CCN2C(=O)C2CC2)[C@H]1CO` was tested. Which AC50 [4] did it give?
**A.** The AC50 was 0.134 µM (active).

**Q.** `CO/C(O)=C1\C(C)=Nc2sc(C(N)=O)c(N)c2C1c1ccncc1` (stereo not given) was tested. Which AC50 [4] did it give?
**A.** Its AC50 is 4.4 µM (active).
